Measured values published in ChEMBL document CHEMBL1123423, “Tranexamic acid derivatives with enhanced absorption” (J Med Chem, 1986).

What was measured:
[1] = tested on: Rattus norvegicus; test: Compound was evaluated for percent tranexamic acid recovered in rat urine within 24 hr after oral administration of 0.1 mmol/kg of body weight per mole of pro drug; format: ADME, organism-based; conditions: in vivo
[2] = tested on: Rattus norvegicus; test: Compound was evaluated for percent tranexamic acid recovered in rat urine within 24 hr after oral administration of per moiety tranexamic acid; format: ADME, organism-based; conditions: in vivo
[3] = Half-life in phosphate buffer at pH 1.2; format: ADME
[4] = Half-life in phosphate buffer at pH 7.5; format: ADME
[5] = Half-life in buffer at pH 7.5; format: ADME
[6] = Half-life in buffer at pH 1.2; format: ADME
[7] = tested on: Rattus norvegicus; test: Compound was evaluated for percent recovery of tranexamic acid in urine from rat within 24 hr after oral administration of the dose 1 mmol/kg of body weight; format: ADME, organism-based; conditions: in vivo
[8] = tested on: Rattus norvegicus; test: Compound was evaluated for percent recovery of tranexamic acid in urine from rat within 24 hr after oral administration of the dose […] of body weight; format: ADME, organism-based; conditions: in vivo
[9] = Half-life in 90% human heparinized plasma.; format: ADME
[10] = tested on: Rattus norvegicus; test: Compound was evaluated for percent tranexamic acid recovered in rat urine within 24 hr after oral administration of 0.1 mmol/kg of body weight.; format: ADME, organism-based; conditions: in vivo

| SMILES | Absorption [1] [%] | Absorption [2] [%] | half-life [5] [days] | half-life [6] [min] | half-life [9] [min] | also measured |
| --- | --- | --- | --- | --- | --- | --- |
| C[C@]1(CN)CC[C@H](C(=O)OCc2oc(=O)oc2COC(=O)[C@H]2CC[C@H](CN)CC2)CC1.Cl.Cl | 54 | 27 |  |  |  |  |
| Cc1oc(=O)oc1COC(=O)[C@H]1CC[C@H](CN)CC1.Cl | 67 |  |  |  |  | half-life [3]: 1500 min; half-life [4]: 120 min |
| CC(C)(C)C(=O)NCOC(=O)[C@H]1CC[C@H](CN)CC1.Cl | 22 |  | 0.417 | 120 |  |  |
| Cl.NC[C@H]1CC[C@H](C(=O)OC2OC(=O)c3ccccc32)CC1 (stereo partly specified) | 44 |  |  |  |  | Recovery [7]: 54%; half-life [4]: 300 min; Recovery [8]: 44% |
| CCC(OC(=O)[C@H]1CC[C@H](CN)CC1)OC(=O)[C@H]1CC[C@](C)(CN)CC1.Cl.Cl (stereo partly specified) | 26 | 13 | 2.92 | 1740 | 6 |  |
| CC(C)(C)C(=O)OCOC(=O)[C@H]1CC[C@H](CN)CC1.Cl | 36 |  | 6.12 | 9840 | 2 | Recovery [7]: 58%; Recovery [8]: 36% |
| CC(C)OC(=O)OC(C)OC(=O)[C@H]1CC[C@H](CN)CC1.Cl (stereo partly specified) | 43 |  | 6 | 3480 |  | Recovery [7]: 86%; Recovery [8]: 43% |
| CC(OC(=O)[C@H]1CC[C@H](CN)CC1)OC(=O)[C@H]1CC[C@](C)(CN)CC1.Cl.Cl (stereo partly specified) | 42 | 21 |  |  |  |  |
| C[C@]1(CN)CC[C@H](C(=O)OCOC(=O)[C@H]2CC[C@H](CN)CC2)CC1.Cl.Cl | 50 | 25 | 1.08 | 1860 | 1.5 | Recovery [7]: 32%; Recovery [8]: 25% |
| CCN(CC)C(=O)C(OC(=O)[C@H]1CC[C@H](CN)CC1)OC(=O)[C@H]1CC[C@](C)(CN)CC1.Cl.Cl (stereo partly specified) | 34 | 17 |  |  |  |  |
| CCOC(=O)OC(C)OC(=O)[C@H]1CC[C@H](CN)CC1.Cl (stereo partly specified) | 50 |  | 3.75 | 3240 | 1.5 | Recovery [7]: 62%; Recovery [8]: 50% |
| CC(=O)OC(C)OC(=O)[C@H]1CC[C@H](CN)CC1.Cl (stereo partly specified) | 59 |  | 2.83 | 840 | 6 |  |
| CC(OC(=O)C(C)(C)C)OC(=O)[C@H]1CC[C@H](CN)CC1.Cl (stereo partly specified) | 43 |  |  |  |  |  |
| Cl.NC[C@H]1CC[C@H](C(=O)Oc2ccc(CCC(=O)O)cc2)CC1 [CETRAXATE HYDROCHLORIDE] | 28 |  |  |  |  |  |
| CC(C)C(=O)OCOC(=O)[C@H]1CC[C@H](CN)CC1.Cl | 54 |  | 1.5 | 1080 | 0.5 |  |
| Cl.NCc1ccc(C(=O)OCOC(=O)[C@H]2CC[C@H](CN)CC2)cc1 | 35 |  |  |  |  |  |
| NC[C@H]1CC[C@H](C(=O)O)CC1 [TRANEXAMIC ACID] |  |  |  |  |  | Recovery [7]: 11%; Absorption [10]: 22% |
| CN(C)C(=O)C(OC(=O)[C@H]1CC[C@H](CN)CC1)OC(=O)[C@H]1CC[C@](C)(CN)CC1.Cl.Cl (stereo partly specified) | 54 | 27 | 0.279 | 2280 |  |  |
| CCOC(=O)[C@H]1CC[C@H](CN)CC1.Cl |  |  |  |  | 240 | Absorption [10]: 92% |
| CC(OC(=O)C(C)C)OC(=O)[C@H]1CC[C@H](CN)CC1.Cl (stereo partly specified) | 71 |  | 5.83 | 1320 |  |  |
| CCOC(=O)C(OC(=O)[C@H]1CC[C@H](CN)CC1)OC(=O)[C@H]1CC[C@](C)(CN)CC1.Cl.Cl (stereo partly specified) | 62 | 31 | 0.0375 | 660 |  |  |
